Results from the supplement of paper PMC10307832.

Columns and labels:
Assay in all cases: relative viability (nuclei count vs DMSO), 5 days (fraction); higher = more cells survive
[1] = compound: CC(=O)c1c(C)c2cnc(Nc3ccc(N4CCNCC4)cn3)nc2n(C2CCCC2)c1=O [Palbociclib] + CS(=O)(=O)N1CCN(Cc2cc3nc(-c4cccc5[nH]ncc45)nc(N4CCOCC4)c3s2)CC1 [Pictilisib] (partner 1 µM)
Method in brief: (§1)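 Relative viability equals treated-well nuclei counts divided by vehicle-well nuclei counts. Counts came from 4× images of lung cancer cell lines grown in 1536-well plates for 5 days after pin-tool dosing on the day after seeding. Dosing used one drug alone or a fixed anchor-drug dose plus five library-drug doses (not always all listed) in √10 steps, and values are medians of duplicate plates.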

[2] = compound: CC(=O)c1c(C)c2cnc(Nc3ccc(N4CCNCC4)cn3)nc2n(C2CCCC2)c1=O [Palbociclib] + Cc1nc(NC(=O)N2CCC[C@H]2C(N)=O)sc1-c1ccnc(C(C)(C)C(F)(F)F)c1 [Alpelisib] (partner 2 µM)
Method in brief: as §1

[3] = compound: CC(=O)c1c(C)c2cnc(Nc3ccc(N4CCNCC4)cn3)nc2n(C2CCCC2)c1=O [Palbociclib] + Cc1nc(Nc2ncc(C(=O)Nc3c(C)cccc3Cl)s2)cc(N2CCN(CCO)CC2)n1 [Dasatinib] (partner 0.075 µM)
Method in brief: as §1

[4] = compound: CC(=O)c1c(C)c2cnc(Nc3ccc(N4CCNCC4)cn3)nc2n(C2CCCC2)c1=O [Palbociclib] + NC(=O)Nc1cc(-c2cccc(F)c2)sc1C(=O)N[C@H]1CCCNC1 [AZD7762] (partner 0.2 µM)
Method in brief: as §1

Cell Line | relative viability ([1]; first compound 0.01 µM) | relative viability ([1]; first compound 0.03162 µM) | relative viability ([1]; first compound 0.1 µM) | relative viability ([1]; first compound 0.3162 µM) | relative viability ([1]; first compound 1 µM) | relative viability ([2]; first compound 0.01 µM) | relative viability ([2]; first compound 0.03162 µM) | relative viability ([2]; first compound 0.1 µM) | relative viability ([2]; first compound 0.3162 µM) | relative viability ([2]; first compound 1 µM) | relative viability ([3]; first compound 0.01 µM) | relative viability ([3]; first compound 0.1 µM) | relative viability ([3]; first compound 0.3162 µM) | relative viability ([3]; first compound 1 µM) | relative viability ([4]; first compound 0.01 µM) | relative viability ([4]; first compound 0.03162 µM) | relative viability ([4]; first compound 0.1 µM) | relative viability ([4]; first compound 0.3162 µM) | relative viability ([4]; first compound 1 µM) | relative viability ([3]; first compound 0.03162 µM)
NCI-H596 | 0.379 | 0.422 | 0.385 | 0.397 | 0.387 | 0.555 | 0.462 | 0.498 | 0.477 | 0.525 | 0.606 | 0.551 | 0.599 | 0.613 | 1.15 | 0.96 | 1.1 | 1.01 | 1.09 | 
NCI-H2170 | 0.346 | 0.252 | 0.253 | 0.239 | 0.206 | 0.797 | 0.767 | 0.776 | 0.715 | 0.601 | 0.488 | 0.549 | 0.534 | 0.521 | 0.925 | 0.736 | 0.875 | 0.773 | 0.514 | 0.515
NCI-H2405 | 0.46 |  | 0.294 | 0.415 | 0.313 | 0.792 |  | 0.441 | 0.678 | 0.494 | 0.207 | 0.226 | 0.212 | 0.208 | 0.666 | 0.78 | 0.726 | 0.62 | 0.383 | 0.212
HCC-366 | 0.137 |  | 0.168 | 0.14 | 0.0548 | 0.517 |  | 0.345 | 0.209 | 0.204 | 0.611 | 0.605 | 0.444 | 0.174 | 0.198 |  | 0.43 | 0.232 | 0.11 | 
NCI-H1975 | 0.286 | 0.271 | 0.199 | 0.25 | 0.186 | 0.634 | 0.549 | 0.543 | 0.469 | 0.353 | 0.373 | 0.323 | 0.322 | 0.297 | 0.715 | 0.772 | 0.609 | 0.659 | 0.531 | 0.347
NCI-H1755 | 0.437 | 0.297 | 0.337 | 0.29 | 0.263 | 0.949 | 0.855 | 0.802 | 0.766 | 0.575 | 0.381 | 0.371 | 0.399 | 0.279 | 0.476 | 0.402 | 0.436 | 0.451 | 0.421 | 0.373
COR-L23 | 0.772 | 0.655 | 0.503 | 0.463 | 0.328 | 0.671 | 0.535 | 0.516 | 0.37 | 0.311 | 0.575 | 0.241 | 0.334 | 0.2 |  |  |  |  |  | 0.431
PC-3 [JPC-3] | 0.778 | 0.647 | 0.56 | 0.677 | 0.494 | 1.06 | 1.02 | 0.851 | 0.88 | 0.618 | 1.06 | 0.936 | 0.801 | 0.566 | 0.794 | 0.814 | 0.619 | 0.592 | 0.41 | 0.758
NCI-H2126 | 0.502 | 0.475 | 0.444 | 0.402 | 0.328 | 0.793 | 0.748 | 0.679 | 0.591 | 0.414 | 0.574 | 0.355 | 0.387 | 0.27 | 0.937 | 0.848 | 0.8 | 0.732 | 0.584 | 0.449
NCI-H1944 | 0.317 | 0.332 | 0.334 | 0.265 | 0.228 | 0.859 | 0.723 | 0.648 | 0.758 | 0.525 | 0.211 | 0.193 | 0.19 | 0.147 | 0.557 | 0.44 | 0.504 | 0.428 | 0.375 | 0.162
NCI-H647 | 0.423 |  | 0.275 | 0.307 | 0.278 | 1.33 | 0.986 | 0.979 | 1.02 | 0.532 | 0.177 | 0.143 | 0.163 | 0.139 | 0.645 | 0.3 | 0.368 | 0.326 | 0.197 | 0.142
NCI-H1395 | 0.616 | 0.542 | 0.507 | 0.494 | 0.425 | 1.05 | 0.835 | 0.79 | 0.875 | 0.686 | 0.399 | 0.345 | 0.325 | 0.333 | 0.428 | 0.406 | 0.406 | 0.453 | 0.407 | 0.382
LCLC-103H | 0.564 | 0.536 | 0.543 | 0.591 | 0.436 | 0.756 | 1.03 | 0.821 | 0.796 | 0.688 | 0.44 | 0.452 | 0.367 | 0.307 | 0.731 | 0.55 | 0.716 | 0.708 | 0.539 | 0.331
EPLC-272H | 0.377 |  | 0.272 | 0.266 | 0.262 | 1.13 |  | 0.808 | 0.69 | 0.658 | 0.328 | 0.345 | 0.249 | 0.198 | 0.306 |  | 0.383 | 0.251 | 0.274 | 
EKVX | 0.478 | 0.363 | 0.223 | 0.281 | 0.249 | 1.04 | 0.716 | 0.661 | 0.604 | 0.401 | 0.467 | 0.502 | 0.455 | 0.372 | 0.7 |  | 0.673 | 0.558 | 0.38 | 0.444
NCI-H1915 | 0.875 | 0.504 | 0.846 | 0.808 | 0.621 | 1.05 | 1.01 | 0.982 | 0.959 | 0.896 | 0.293 | 0.28 | 0.247 | 0.245 | 0.685 |  | 0.718 | 0.649 | 0.608 | 0.247
NCI-H2347 | 0.538 | 0.772 | 0.584 | 0.47 | 0.492 | 1.15 | 0.979 | 0.642 | 0.789 | 0.597 | 0.341 | 0.266 | 0.247 | 0.245 | 0.793 | 0.638 | 0.646 | 0.633 | 0.48 | 
